According to ChEMBL document CHEMBL3525916, “Investigation of figopitant and its metabolites in rat tissue by combining whole-body autoradiography with liquid extraction surface analysis mass spectrometry” (Drug Metab Dispos, 2012):

What was measured:
Design in all cases: dose 5 mg/kg, route intravenous
Conditions in all cases: in vivo
[1] = tested on: Plasma; experiment: Half life in albino Wistar Hannover rat plasma at 5 mg/kg, iv by liquid scintillation counting; assay type: ADME, organism-based
[2] = Half life in albino Wistar Hannover rat salivary gland at 5 mg/kg, iv by autoradiography analysis; assay type: ADME, organism-based
[3] = tested on: Lung; experiment: Biodistribution in albino Wistar Hannover rat lung at 5 mg/kg, iv after 4 hrs by autoradiography analysis; assay type: ADME, organism-based
[4] = tested on: Rattus norvegicus; experiment: Biodistribution in albino Wistar Hannover rat salivary gland at 5 mg/kg, iv after 5 mins by autoradiography analysis; assay type: ADME, organism-based
[5] = tested on: Spleen; experiment: Biodistribution in albino Wistar Hannover rat spleen at 5 mg/kg, iv after 4 hrs by autoradiography analysis; assay type: ADME, organism-based
[6] = tested on: Blood; experiment: Biodistribution in albino Wistar Hannover rat whole blood at 5 mg/kg, iv after 24 hrs by liquid scintillation counting; assay type: ADME, organism-based
[7] = tested on: Rattus norvegicus; experiment: Biodistribution in albino Wistar Hannover rat bone marrow at 5 mg/kg, iv after 24 hrs by autoradiography analysis; assay type: ADME, organism-based
[8] = tested on: Spleen; experiment: Drug uptake in albino Wistar Hannover rat spleen at 5 mg/kg, iv by LESA-MS analysis; assay type: ADME, organism-based
[9] = tested on: Lung; experiment: Half life in albino Wistar Hannover rat lung at 5 mg/kg, iv by autoradiography analysis; assay type: ADME, organism-based
[10] = tested on: Rattus norvegicus; experiment: Biodistribution in albino Wistar Hannover rat testis at 5 mg/kg, iv after 4 hrs by autoradiography analysis; assay type: ADME, organism-based
[11] = tested on: Pancreas; experiment: Biodistribution in albino Wistar Hannover rat pancreas at 5 mg/kg, iv after 24 hrs by autoradiography analysis; assay type: ADME, organism-based
[12] = tested on: Spleen; experiment: Biodistribution in albino Wistar Hannover rat spleen at 5 mg/kg, iv after 5 mins by autoradiography analysis; assay type: ADME, organism-based
[13] = Half life in albino Wistar Hannover rat testis at 5 mg/kg, iv by autoradiography analysis; assay type: ADME, organism-based
[14] = tested on: Spleen; experiment: Biodistribution in albino Wistar Hannover rat spleen at 5 mg/kg, iv after 24 hrs by autoradiography analysis; assay type: ADME, organism-based
[15] = Drug uptake in albino Wistar Hannover rat salivary gland at 5 mg/kg, iv by LESA-MS analysis; assay type: ADME, organism-based
[16] = tested on: Plasma; experiment: Biodistribution in albino Wistar Hannover rat plasma at 5 mg/kg, iv after 4 hrs by liquid scintillation counting; assay type: ADME, organism-based
[17] = tested on: Brain; experiment: Biodistribution in albino Wistar Hannover rat brain at 5 mg/kg, iv after 24 hrs by autoradiography analysis; assay type: ADME, organism-based
[18] = tested on: Brain; experiment: Drug uptake in albino Wistar Hannover rat brain at 5 mg/kg, iv by LESA-MS analysis; assay type: ADME, organism-based
[19] = tested on: Rattus norvegicus; experiment: Biodistribution in albino Wistar Hannover rat epididymis at 5 mg/kg, iv after 4 hrs by autoradiography analysis; assay type: ADME, organism-based
[20] = tested on: Rattus norvegicus; experiment: Biodistribution in albino Wistar Hannover rat renal cortex at 5 mg/kg, iv after 24 hrs by autoradiography analysis; assay type: ADME, organism-based
[21] = tested on: Pituitary gland; experiment: Biodistribution in albino Wistar Hannover rat pituitary at 5 mg/kg, iv after 5 mins by autoradiography analysis; assay type: ADME, organism-based
[22] = tested on: Rattus norvegicus; experiment: Biodistribution in albino Wistar Hannover rat muscle caudal at 5 mg/kg, iv after 24 hrs by autoradiography analysis; assay type: ADME, organism-based, Muscle tissue
[23] = Drug uptake in albino Wistar Hannover rat brown fat at 5 mg/kg, iv by LESA-MS analysis; assay type: ADME, organism-based, Brown adipose tissue
[24] = tested on: Rattus norvegicus; experiment: Biodistribution in albino Wistar Hannover rat testis at 5 mg/kg, iv after 5 mins by autoradiography analysis; assay type: ADME, organism-based
[25] = tested on: Liver; experiment: Biodistribution in albino Wistar Hannover rat liver at 5 mg/kg, iv after 5 mins by autoradiography analysis; assay type: ADME, organism-based
[26] = tested on: Thymus; experiment: Drug uptake in albino Wistar Hannover rat thymus at 5 mg/kg, iv by LESA-MS analysis; assay type: ADME, organism-based
[27] = tested on: Muscle tissue; experiment: Drug uptake in albino Wistar Hannover rat muscle at 5 mg/kg, iv by LESA-MS analysis; assay type: ADME, organism-based
[28] = tested on: Blood; experiment: Half life in albino Wistar Hannover rat whole blood at 5 mg/kg, iv by liquid scintillation counting; assay type: ADME, organism-based
[29] = tested on: Rattus norvegicus; experiment: Biodistribution in albino Wistar Hannover rat bone marrow at 5 mg/kg, iv after 4 hrs by autoradiography analysis; assay type: ADME, organism-based
[30] = tested on: Rattus norvegicus; experiment: Biodistribution in albino Wistar Hannover rat adrenal cortex at 5 mg/kg, iv after 4 hrs by autoradiography analysis; assay type: ADME, organism-based
[31] = tested on: Lung; experiment: Biodistribution in albino Wistar Hannover rat lung at 5 mg/kg, iv after 24 hrs by autoradiography analysis; assay type: ADME, organism-based
[32] = tested on: Plasma; experiment: Biodistribution in albino Wistar Hannover rat plasma at 5 mg/kg, iv after 5 mins by liquid scintillation counting; assay type: ADME, organism-based
[33] = tested on: Rattus norvegicus; experiment: Biodistribution in albino Wistar Hannover rat muscle caudal at 5 mg/kg, iv after 5 mins by autoradiography analysis; assay type: ADME, organism-based, Muscle tissue
[34] = Drug uptake in albino Wistar Hannover rat epididymis at 5 mg/kg, iv by LESA-MS analysis; assay type: ADME, organism-based
[35] = Half life in albino Wistar Hannover rat adipose tissue at 5 mg/kg, iv by autoradiography analysis; assay type: ADME, organism-based
[36] = tested on: Harderian gland; experiment: Biodistribution in albino Wistar Hannover rat harderian gland at 5 mg/kg, iv after 4 hrs by autoradiography analysis; assay type: ADME, organism-based
[37] = tested on: Rattus norvegicus; experiment: Biodistribution in albino Wistar Hannover rat renal cortex at 5 mg/kg, iv after 5 mins by autoradiography analysis; assay type: ADME, organism-based
[38] = tested on: Pancreas; experiment: Drug uptake in albino Wistar Hannover rat pancreas at 5 mg/kg, iv by LESA-MS analysis; assay type: ADME, organism-based
[39] = tested on: Rattus norvegicus; experiment: Biodistribution in albino Wistar Hannover rat epididymis at 5 mg/kg, iv after 24 hrs by autoradiography analysis; assay type: ADME, organism-based
[40] = tested on: Rattus norvegicus; experiment: Biodistribution in albino Wistar Hannover rat adipose tissue at 5 mg/kg, iv after 4 hrs by autoradiography analysis; assay type: ADME, organism-based
[41] = Half life in albino Wistar Hannover rat muscle caudal at 5 mg/kg, iv by autoradiography analysis; assay type: ADME, organism-based, Muscle tissue
[42] = tested on: Rattus norvegicus; experiment: Biodistribution in albino Wistar Hannover rat bone marrow at 5 mg/kg, iv after 5 mins by autoradiography analysis; assay type: ADME, organism-based
[43] = tested on: Thymus; experiment: Half life in albino Wistar Hannover rat thymus at 5 mg/kg, iv by autoradiography analysis; assay type: ADME, organism-based
[44] = tested on: Rattus norvegicus; experiment: Biodistribution in albino Wistar Hannover rat salivary gland at 5 mg/kg, iv after 4 hrs by autoradiography analysis; assay type: ADME, organism-based
[45] = Drug uptake in albino Wistar Hannover rat testis at 5 mg/kg, iv by LESA-MS analysis; assay type: ADME, organism-based
[46] = tested on: Rattus norvegicus; experiment: Biodistribution in albino Wistar Hannover rat adrenal cortex at 5 mg/kg, iv after 5 mins by autoradiography analysis; assay type: ADME, organism-based
[47] = tested on: Liver; experiment: Biodistribution in albino Wistar Hannover rat liver at 5 mg/kg, iv after 24 hrs by autoradiography analysis; assay type: ADME, organism-based
[48] = tested on: Blood; experiment: Biodistribution in albino Wistar Hannover rat whole blood at 5 mg/kg, iv after 4 hrs by liquid scintillation counting; assay type: ADME, organism-based
[49] = tested on: Rattus norvegicus; experiment: Biodistribution in albino Wistar Hannover rat muscle caudal at 5 mg/kg, iv after 4 hrs by autoradiography analysis; assay type: ADME, organism-based, Muscle tissue
[50] = tested on: Rattus norvegicus; experiment: Biodistribution in albino Wistar Hannover rat myocardium at 5 mg/kg, iv after 24 hrs by autoradiography analysis; assay type: ADME, organism-based
[51] = tested on: Lung; experiment: Biodistribution in albino Wistar Hannover rat lung at 5 mg/kg, iv after 5 mins by autoradiography analysis; assay type: ADME, organism-based
[52] = tested on: Liver; experiment: Biodistribution in albino Wistar Hannover rat liver at 5 mg/kg, iv after 4 hrs by autoradiography analysis; assay type: ADME, organism-based
[53] = tested on: Rattus norvegicus; experiment: Biodistribution in albino Wistar Hannover rat muscle cranial at 5 mg/kg, iv after 5 mins by autoradiography analysis; assay type: ADME, organism-based, Muscle tissue

CN(CCc1cc(C(F)(F)F)cc(C(F)(F)F)c1)C(=O)[C@H](c1ccccc1)N1CCN(CC2CC2)CC1.Cl.O
t1/2 [1]: 21.9 h
t1/2 [2]: 20.3 h
Drug uptake [3]: 10036 ngequiv/g
Drug uptake [4]: 10729 ngequiv/g
Drug uptake [5]: 10694 ngequiv/g
Drug uptake [6]: 122 ngequiv/g
Drug uptake [7]: 1156 ngequiv/g
Drug uptake [8]: 30.9%
t1/2 [9]: 20.5 h
Drug uptake [10]: 1510 ngequiv/g
Drug uptake [11]: 4138 ngequiv/g
Drug uptake [12]: 7308 ngequiv/g
t1/2 [13]: 95.6 h
Drug uptake [14]: 3306 ngequiv/g
Drug uptake [15]: 42.5%
Drug uptake [16]: 192 ngequiv/g
Drug uptake [17]: 50 ngequiv/g
Drug uptake [18]: 75.6%
Drug uptake [19]: 2290 ngequiv/g
Drug uptake [20]: 2627 ngequiv/g
Drug uptake [21]: 8110 ngequiv/g
Drug uptake [22]: 670 ngequiv/g
Drug uptake [23]: 47.1%
Drug uptake [24]: 938 ngequiv/g
Drug uptake [25]: 5984 ngequiv/g
Drug uptake [26]: 67.2%
Drug uptake [27]: 36.5%
t1/2 [28]: 38.6 h
Drug uptake [29]: 3910 ngequiv/g
Drug uptake [30]: 11078 ngequiv/g
Drug uptake [31]: 1708 ngequiv/g
Drug uptake [32]: 483 ngequiv/g
Drug uptake [33]: 6936 ngequiv/g
Drug uptake [34]: 62.1%
t1/2 [35]: 27.1 h
Drug uptake [36]: 13941 ngequiv/g
Drug uptake [37]: 19088 ngequiv/g
Drug uptake [38]: 23.7%
Drug uptake [39]: 1043 ngequiv/g
Drug uptake [40]: 537 ngequiv/g
t1/2 [41]: 19.7 h
Drug uptake [42]: 4445 ngequiv/g
t1/2 [43]: 22.7 h
Drug uptake [44]: 8238 ngequiv/g
Drug uptake [45]: 79.5%
Drug uptake [46]: 21006 ngequiv/g
Drug uptake [47]: 4793 ngequiv/g
Drug uptake [48]: 361 ngequiv/g
Drug uptake [49]: 2606 ngequiv/g
Drug uptake [50]: 1207 ngequiv/g
Drug uptake [51]: 24769 ngequiv/g
Drug uptake [52]: 13851 ngequiv/g
Drug uptake [53]: 8437 ngequiv/g
